We go through two compounds from ChEMBL document CHEMBL6178019, “Discovery of CYP1A1 Inhibitors for Host-Directed Therapy against Sepsis” (J Med Chem, 2025).

Data set [1] addresses T1, CYP1A1 (Homo sapiens, UniProt P04798).
T1 sequence (P04798 whole entry): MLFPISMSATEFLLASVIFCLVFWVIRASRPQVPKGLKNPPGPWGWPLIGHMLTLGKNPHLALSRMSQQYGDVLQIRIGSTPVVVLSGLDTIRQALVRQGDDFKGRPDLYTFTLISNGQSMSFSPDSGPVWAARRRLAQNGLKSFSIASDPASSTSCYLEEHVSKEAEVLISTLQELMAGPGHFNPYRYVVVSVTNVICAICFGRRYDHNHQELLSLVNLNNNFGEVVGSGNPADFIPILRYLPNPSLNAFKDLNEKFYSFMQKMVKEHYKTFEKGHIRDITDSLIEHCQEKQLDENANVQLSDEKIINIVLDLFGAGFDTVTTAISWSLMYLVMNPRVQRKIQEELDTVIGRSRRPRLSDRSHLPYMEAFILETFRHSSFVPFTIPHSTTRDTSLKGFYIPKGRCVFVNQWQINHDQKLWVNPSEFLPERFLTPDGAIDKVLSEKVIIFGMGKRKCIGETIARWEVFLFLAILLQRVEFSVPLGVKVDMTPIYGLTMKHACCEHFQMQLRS
As to the kind of experiment: Inhibition of CYP1A1 in human Caco-2 cells assessed as relative activity by measuring fold change at 500 nM incubated for 12 hrs by EROD assay relative to control. In kind it is cell-based. Conditions: read-out: FC.

Data set [2] concerns the target T2, CYP1A1 (Mus musculus, UniProt P00184).
T2 sequence (P00184 whole entry): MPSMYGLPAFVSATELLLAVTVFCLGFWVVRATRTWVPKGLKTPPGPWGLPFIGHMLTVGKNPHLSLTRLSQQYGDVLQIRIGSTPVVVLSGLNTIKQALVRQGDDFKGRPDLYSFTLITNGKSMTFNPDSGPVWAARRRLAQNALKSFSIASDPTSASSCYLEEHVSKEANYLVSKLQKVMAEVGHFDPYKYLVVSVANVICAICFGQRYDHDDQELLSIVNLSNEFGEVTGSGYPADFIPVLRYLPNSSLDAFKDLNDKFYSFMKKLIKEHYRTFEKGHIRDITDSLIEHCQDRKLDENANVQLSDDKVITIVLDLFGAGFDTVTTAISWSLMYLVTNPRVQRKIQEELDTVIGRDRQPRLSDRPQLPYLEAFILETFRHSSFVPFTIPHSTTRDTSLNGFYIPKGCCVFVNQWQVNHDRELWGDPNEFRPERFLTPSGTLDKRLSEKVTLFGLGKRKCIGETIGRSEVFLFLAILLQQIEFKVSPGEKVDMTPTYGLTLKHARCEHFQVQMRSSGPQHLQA
As to the kind of experiment: Inhibition of CYP1A1 in mouse RAW264.7 cells assessed as relative activity by measuring fold change at 5 uM incubated for 12 hrs by EROD assay relative to control. In kind it is cell-based. The settings on record: read-out: FC.

Data set [3] in a line: Toxicity in male C57BL/6 mouse assessed as effect on aspartate aminotransferase (AST) level in serum up to 100 mg/kg, ip measured after 12 hrs. In kind it is organism-based. The settings on record: in vivo.
Data set [4] in a line: Toxicity in male C57BL/6 mouse assessed as effect on blood urea nitrogen level in serum up to 100 mg/kg, ip measured after 12 hrs. The settings on record: in vivo. In kind it is organism-based.
The test system of data set [5] is Acinetobacter baumannii. As to the kind of experiment: Antibacterial activity against Acinetobacter baumannii infected in C57BL/6 mouse assessed as increase in survival at 25 mg/kg, ip preadministered for 12 hrs followed by bacterial infection and measured after 60 hrs by Kaplan Meier survival analysis. In kind it is functional, organism-based. The settings on record: time 72.0 hrs.

The subject of data set [6] is Staphylococcus aureus. As to the kind of experiment: Antibacterial activity against methicillin-resistant Staphylococcus aureus infected in CYP1A1 knockout mouse model assessed as increase in survival rate at 25 mg/kg, ip pretreated for 12 hrs followed by bacterial infection and measured after 60 hrs by Kaplan Meier survival analysis. In kind it is functional, organism-based. The settings on record: time 72.0 hrs.

In data set [7] the test system is Staphylococcus aureus. As to the kind of experiment: Antibacterial activity against methicillin-resistant Staphylococcus aureus infected in C57BL/6 mouse model assessed as reduction in liver damage at 25 mg/kg, ip administered for 12 hrs by H and E staining based analysis. In kind it is functional, organism-based.
For data set [8], the system named is Staphylococcus aureus. As to the kind of experiment: Antibacterial activity against methicillin-resistant Staphylococcus aureus infected in C57BL/6 mouse assessed as reduction in kidney damage at 25 mg/kg, ip administered for 12 hrs by H and E staining based analysis. In kind it is functional, organism-based.
The subject of data set [9] is Staphylococcus aureus. As to the kind of experiment: Antibacterial activity against methicillin-resistant Staphylococcus aureus infected in C57BL/6 mouse assessed as reversal of blood urea nitrogen level in serum at 25 mg/kg, ip administered for 12 hrs by absorbance based microplate reader. In kind it is functional, organism-based.
The test system of data set [10] is Mus musculus. As to the kind of experiment: Effect on CYP1A1 protein expression in C57BL/6 mouse liver infected with methicillin-resistant Staphylococcus aureus at 25 mg/kg, ip administered for 12 hrs by Western blot analysis. In kind it is functional, organism-based. A general note: Immunoblotting shows a protein as a band on a membrane.
Data set [11] has as its system Staphylococcus aureus. As to the kind of experiment: Antibacterial activity against methicillin-resistant Staphylococcus aureus assessed as inhibition of bacterial growth at 0.02 to 2.5 mg/ml. In kind it is functional, organism-based. The settings on record: dose 0.02-2.5 mg/ml.
Data set [12] relates to Acinetobacter baumannii. As to the kind of experiment: Antibacterial activity against Acinetobacter baumannii assessed as inhibition of bacterial growth at 0.02 to 2.5 mg/ml. In kind it is functional, organism-based. The settings on record: dose 0.02-2.5 mg/ml.
The subject of data set [13] is Acinetobacter baumannii. As to the kind of experiment: Antibacterial activity against Acinetobacter baumannii infected in C57BL/6 mouse model assessed as reduction in bacterial load in peritoneal lavage fluid at 25 mg/kg, ip pretreated for 12 hrs followed by bacterial infection and measured after 24 hrs relative to control. In kind it is functional. More on the design: scale not given: the % may be the effect or the level left. Conditions: time 36 hrs.

In data set [14] the test system is Staphylococcus aureus. As to the kind of experiment: Antibacterial activity against methicillin-resistant Staphylococcus aureus infected in C57BL/6 mouse model assessed as reduction in bacterial load in peritoneal lavage fluid at 25 mg/kg, ip pretreated for 12 hrs followed by bacterial infection and measured after 24 hrs relative to control. In kind it is functional. The arrangement: scale not given: the % may be the effect or the level left. Conditions: time 36 hrs.

The test system of data set [15] is RAW264.7. As to the kind of experiment: Induction of phagocytosis in mouse RAW264.7 cells assessed as upregulation of SR-A1 mRNA expression by qRT-PCR analysis. In kind it is functional, cell-based. On the technique in general: Quantitative PCR measures a nucleic acid by following its amplification.
Data set [16] relates to RAW264.7. As to the kind of experiment: Induction of phagocytosis in mouse RAW264.7 cells assessed as upregulation of CD68 mRNA expression by qRT-PCR analysis. In kind it is functional, cell-based.
In data set [17] the test system is Staphylococcus aureus. As to the kind of experiment: Antibacterial activity against methicillin-resistant Staphylococcus aureus infected in C57BL/6 mouse model assessed as reduction in bacterial dissemination from PLF to liver at 25 mg/kg, ip preadministered for 12 hrs followed by bacterial infection and measured after 24 hrs. In kind it is functional, organism-based. The settings on record: time 36.0 hrs.

Data set [18] has as its system Staphylococcus aureus. As to the kind of experiment: Antibacterial activity against methicillin-resistant Staphylococcus aureus infected in C57BL/6 mouse model assessed as reduction in bacterial dissemination from PLF to kidney at 25 mg/kg, ip preadministered for 12 hrs followed by bacterial infection and measured after 24 hrs. In kind it is functional, organism-based. The settings on record: time 36.0 hrs.

Data set [19] has as its system THP-1. As to the kind of experiment: Induction of phagocytosis in human THP-1-derived macrophages infected with hexidine iodide labelled methicillin-R Staphylococcus aureus at 5 uM preincubated for 12 hrs followed by bacterial infection and measured after 1 hrs by fluorescence based confocal microscopic analysis. In kind it is functional, cell-based. The settings on record: time 13.0 hrs.

Data set [20] has as its system RAW264.7. As to the kind of experiment: Induction of phagocytosis in zymosan A stimulated mouse RAW264.7 cells assessed as upregulation of CD32 mRNA expression at 5.0 uM incubated for 12 hrs by qRT-PCR analysis. In kind it is functional, cell-based.
In data set [21] the test system is Escherichia coli. As to the kind of experiment: Antibacterial activity Escherichia coli infected in C57BL/6 mouse model assessed as increase in survival rate at 25 mg/kg, ip incubated for 12 hrs followed by bacterial infection and measured after 100 hrs by Kaplan Meier survival analysis. The settings on record: time 112.0 hrs. In kind it is functional, organism-based.

Calls of active or inactive are those of the source. No cut-off for these calls is given here.

Take `Cn1cc(/C=C/C(=O)c2ccc3c(c2)n(C)c(=O)n3C)c2ccccc21`: in [1], the fold induction at 12 h, 0.5 µM amounted to 0.25. Further, the fold induction at 12 h, 5 µM in data set [2] is 0.25. For the same compound, the Activity result in [3] was “Non-toxic”; in data set [4] it was “Non-toxic”; in [13] it was >70%; in [14], >70%. The result in data set [5], in [7], in [8], in data set [9], in [11] and in data set [12] was Active. Moreover, the outcome in data set [15], in data set [16], in data set [17], in data set [18], in [19] and in data set [20] was Active. For the same compound, in [21], the outcome was Active. The result in data set [6] and in data set [10] was inactive.
As to `C#Cc1ccccc1/C=C/C(=O)c1ccc2c(c1)n(C)c(=O)n2C`, the fold induction at 12 h, 0.5 µM in data set [1] is 0.06. In addition, the fold induction at 12 h, 5 µM in data set [2] turned out to be 0.03. Further, the Activity result in data set [3] was “Non-toxic”; in data set [4], “Non-toxic”; in data set [13], >70%; in [14], >70%. Also, the outcome in data set [5], in data set [7], in data set [8], in [9], in [11] and in [12] was Active. Further, the outcome in [15], in data set [16], in data set [17], in [18], in data set [19] and in [20] was Active. For the same compound, the outcome in [21] was Active. Besides, the outcome in [6] and in [10] was inactive.
